We go through 35 compounds from patent publication US9764046B2, “Labeling composition for intraocular tissue, labeling method of intraocular tissue, and screening method” (CANON KABUSHIKI KAISHA, priority 2008, dated 2017).

Several values for one entry are separate records, joined by “and”; a condition that tells them apart may be missing. Identical values can stand only once.

Data set [1] relates to intraocular tissue (retinal tissue incl. photoreceptor cell layer, vitreous body) of Zebrafish 7-day-old embryo. The data set is described as follows: Staining of intraocular tissue of Zebrafish fry by exposure to staining liquid, ocular tissue section observed by confocal microscope. As to conditions: Zebrafish 7 dpf fry, 1 μg/mL, 1 hour exposure, fixed ocular section. The format is in vivo.

A short description of data set [2]: Excitation and fluorescence wavelengths by fluorescence spectrometer FL4500. Particulars: in nm (unit assumed). The data set is classed as physicochemical.
Where [3] appears, read: aqueous solution: 10 mg/mL DMSO solution diluted to 1/500 with purified water (Examples 1 to 94).
Setting [4] is: values in a chloroform solution (Examples 95 to 106).

Regarding `CCN(CC)c1ccc2c(-c3ccc(S(=O)(=O)NCCC(=O)O)cc3S(=O)(=O)O)c3ccc(=[N+](CC)CC)cc-3oc2c1.[Na+]` [Compound 95], the Staining ability result in data set [1] is reported as “++”. Moreover, in data set [2] (setting [3]), the “λem (fluorescence wavelength)” value is 578 and 590; the “λex (excitation wavelength)” value was 509 and 528.

Turning to `COc1ccc(N2c3ccc(/C=C4\SC(=S)N(CC(=O)O)C4=O)cc3[C@@H]3CCC[C@@H]32)cc1` [Compound 34], the Staining ability entry in data set [1] is recorded as “++”. In data set [2] (setting [3]), the “λem (fluorescence wavelength)” value worked out at 648 and the “λex (excitation wavelength)” value was 571.

On to `CCN1C(=S)S/C(=c2/s/c(=C/c3cc(Br)c4c(c3)[C@@H]3CCC[C@@H]3N4c3ccc(Br)cc3)c(=O)n2CC(=O)O)C1=S` [Compound 40], for which the Staining ability entry in data set [1] is reported as “++”. For the same compound, in data set [2] (setting [3]), the “λem (fluorescence wavelength)” value was 671 and the “λex (excitation wavelength)” value is reported as 559.

Consider `CC/N=c1\cc2oc3cc(NCC)c(C)cc3c(-c3ccccc3C(=O)CC)c-2cc1C` [Compound 90], for which, in data set [1], the Staining ability result is “++”. Further, in data set [2] (setting [3]), the “λem (fluorescence wavelength)” value was 550 and the “λex (excitation wavelength)” value is on record as 528.

As for `Cn1c(=O)cc2c3c(c(Nc4ccccc4)ccc31)C(=O)c1ccccc1-2` [Compound 110], the Staining ability entry in data set [1] is “∘”. In addition, in data set [2] (setting [4]), the “λem (fluorescence wavelength)” value worked out at 614 and the “λex (excitation wavelength)” value was determined as 538.

For the compound `CCCCCCCCN1C(=O)S/C(=c2/s/c(=C/c3ccc4c(c3)C3CCCC3N4c3ccc(C=C(c4ccccc4)c4ccccc4)cc3)c(=O)n2CC(=O)OCC)C1=O` (stereo not shown) [Compound 57], the Staining ability entry in data set [1] is on record as “++”. Also, in data set [2] (setting [3]), the “λem (fluorescence wavelength)” value was 671 and the “λex (excitation wavelength)” value is 590.

As to `COc1ccc(N2c3ccc(/C=C/C4=[N+](CCC(=O)O)c5ccc6ccccc6c5C4(C)C)cc3C3CCCC32)cc1.[I-]` (stereo not shown) [Compound 75], in data set [1], the Stained site turned out to be 1 and the Staining ability result is reported as “++”. Further, in data set [2] (setting [3]), the “λem (fluorescence wavelength)” value was determined as 683 and the “λex (excitation wavelength)” value came to 619.

In the case of `CC[n+]1c(C=C2SCC(=O)N2c2ccccc2)sc2ccccc21.[Br-]` [Compound 85], in data set [1], the Stained site is listed as 2 and the Staining ability entry is “++”. Moreover, in data set [2] (setting [3]), the “λem (fluorescence wavelength)” value is given as 503 and the “λex (excitation wavelength)” value stood at 353.

With `O=C(O)CN1C(=O)/C(=C\c2cc(Br)c3c(c2)[C@@H]2CCC[C@@H]2N3c2ccc(Br)cc2)SC1=S` [Compound 38], the Staining ability entry in data set [1] is “++”. Further, in data set [2] (setting [3]), the “λem (fluorescence wavelength)” value came to 609 and the “λex (excitation wavelength)” value is listed as 482.

On to `CCN1C(=O)/C(=c2/s/c(=C/c3ccc4c(c3)C3CCCC3N4c3ccc(C=C(c4ccccc4)c4ccccc4)cc3)c(=O)n2CC(=O)O)SC1=S` (stereo not shown) [Compound 80], for which the Staining ability result in data set [1] is recorded as “++”. Further, in data set [2] (setting [3]), the “λem (fluorescence wavelength)” value is 673 and the “λex (excitation wavelength)” value is 551.

For the compound `O=C(O)C[n+]1c(/C=C/c2ccc3c(c2)C2CCCC2N3c2ccc(C=C(c3ccccc3)c3ccccc3)cc2)sc2ccccc21.[Br-]` (stereo not shown) [Compound 62], in data set [1], the Stained site is recorded as 2 and the Staining ability entry is reported as “++”. In addition, in data set [2] (setting [3]), the “λem (fluorescence wavelength)” value is 675 and the “λex (excitation wavelength)” value is listed as 610.

Take `Cc1cccc(C)c1Nc1ccc2c3c(cc(=O)n2C)-c2ccccc2C(=O)c13` [Compound 122]: the Staining ability entry in data set [1] is given as “∘”. Further, in data set [2] (setting [4]), the “λem (fluorescence wavelength)” value was found to be 582 and the “λex (excitation wavelength)” value is recorded as 534.

Regarding `CCN1S/C(=c2\s/c(=C/c3ccc4c(c3)[C@@H]3CCC[C@@H]3N4Cc3ccccc3)c(=O)n2CC(=O)O)SC1=S` [Compound 39], the Staining ability entry in data set [1] is listed as “++”. In data set [2] (setting [3]), the “λem (fluorescence wavelength)” value is recorded as 657 and the “λex (excitation wavelength)” value is 576.

For `Cc1cccc(Nc2ccc3c4c(cc(=O)n3C)-c3ccccc3C(=O)c24)c1` [Compound 115], the Staining ability entry in data set [1] was “∘”. For the same compound, in data set [2] (setting [4]), the “λem (fluorescence wavelength)” value came out at 614 and the “λex (excitation wavelength)” value is 540.

On to `CCCCNc1ccc2c3c(cccc13)C(=O)N(CCCC)C2=O` [Compound 87], for which, in data set [1], the Staining ability entry is listed as “++”. In addition, in data set [2] (setting [3]), the “λem (fluorescence wavelength)” value was determined as 551 and the “λex (excitation wavelength)” value was 466.

For the compound `O=C(O)CC[n+]1c(/C=C/c2ccc3c(c2)C2CCCC2N3c2ccc(C=C(c3ccccc3)c3ccccc3)cc2)sc2ccccc21.[I-]` (stereo not shown) [Compound 78], in data set [1], the Stained site turned out to be 1 and the Staining ability entry is given as “++”. Further, in data set [2] (setting [3]), the “λem (fluorescence wavelength)” value was 726 and the “λex (excitation wavelength)” value is listed as 598.

Turning to `Cn1/c(=C/C=C/C2=[N+](CCCS(=O)(=O)[O-])CCS2)oc(=O)/c1=C/C=C1\SCCN1CCCS(=O)(=O)[O-].[Na+]` [Compound 14], the Staining ability entry in data set [1] is “++”. Besides, in data set [2], the “λem (fluorescence wavelength)” value came out at 617 and the “λex (excitation wavelength)” value is on record as 588.

As to `O=C(O)C[n+]1c(/C=C/c2ccc3c(c2)C2CCCC2N3c2ccc(C=C(c3ccccc3)c3ccccc3)cc2)oc2ccccc21.[Br-]` (stereo not shown) [Compound 65], in data set [1], the Stained site is listed as 1 and the Staining ability entry was “++”. In addition, in data set [2] (setting [3]), the “λem (fluorescence wavelength)” value is 657 and the “λex (excitation wavelength)” value came to 570.

As to `COc1ccc(N2c3ccc(/C=C/c4sc5c6ccccc6ccc5[n+]4CCC(=O)O)cc3C3CCCC32)cc1.[I-]` (stereo not shown) [Compound 83], in data set [1], the Stained site is on record as 2 and the Staining ability entry is given as “++”. For the same compound, in data set [2] (setting [3]), the “λem (fluorescence wavelength)” value was determined as 682 and the “λex (excitation wavelength)” value is 605.

Regarding `O=C(O)C1=NN(c2ccccc2)C(=O)/C1=C\c1ccc2c(c1)C1CCCC1N2c1ccc(Cc2ccccc2)cc1` (stereo not shown) [Compound 45], in data set [1], the Staining ability result is reported as “++”. In addition, in data set [2] (setting [3]), the “λem (fluorescence wavelength)” value is listed as 586 and the “λex (excitation wavelength)” value came to 481.

As to `COc1ccc(N2c3ccc(/C=C/c4sc5ccccc5[n+]4CC(=O)O)cc3C3CCCC32)cc1.[Br-]` (stereo not shown) [Compound 60], in data set [1], the Stained site was determined as 2 and the Staining ability result was “++”. Besides, in data set [2] (setting [3]), the “λem (fluorescence wavelength)” value is recorded as 677 and the “λex (excitation wavelength)” value came to 560.

In the case of `CCOC(=O)CN1C(=O)/C(=C\c2cc(Br)c3c(c2)C2CCCC2N3c2ccc(Br)cc2)SC1=S` (stereo not shown) [Compound 50], in data set [1], the Staining ability result is given as “++”. Moreover, in data set [2] (setting [3]), the “λem (fluorescence wavelength)” value is 580 and the “λex (excitation wavelength)” value is on record as 482.

With `COc1ccc(N2c3ccc(/C=c4/s/c(=C5/SC(=O)N(Cc6ccccc6)C5=O)n(CC(=O)O)c4=O)cc3C3CCCC32)cc1` (stereo not shown) [Compound 53], the Staining ability result in data set [1] was “++”. In data set [2] (setting [3]), the “λem (fluorescence wavelength)” value was found to be 712 and the “λex (excitation wavelength)” value came to 568.

In the case of `O=C(O)CN1C(=O)/C(=C/c2ccc3c(c2)[C@@H]2CCC[C@@H]2N3c2ccc(C=C(c3ccccc3)c3ccccc3)cc2)SC1=S` [Compound 35], the Staining ability entry in data set [1] was “++”. In addition, in data set [2] (setting [3]), the “λem (fluorescence wavelength)” value is 655 and the “λex (excitation wavelength)” value is given as 535.

Consider `CCN1C=C/C(=C\C=C\c2cc[n+](CC)c3ccccc23)c2ccccc21.[I-]` [Compound 26], for which, in data set [1], the Stained site is listed as 2 and the Staining ability result is “++”. In addition, in data set [2] (setting [3]), the “λem (fluorescence wavelength)” value worked out at 715 and the “λex (excitation wavelength)” value stood at 679.

Take `CCN1C(=O)/C(=c2\s/c(=C/c3ccc4c(c3)C3CCCC3N4CC)c(=O)n2CC)SC1=S` (stereo not shown) [Compound 86]: in data set [1], the Staining ability entry was “++”. Further, in data set [2] (setting [3]), the “λem (fluorescence wavelength)” value turned out to be 671 and the “λex (excitation wavelength)” value is given as 623.

Regarding `C=CCN1C(=O)/C(=c2\s/c(=C/c3ccc4c(c3)C3CCCC3N4c3ccc(OC)cc3)c(=O)n2CC(=O)O)SC1=S` (stereo not shown) [Compound 97], the Staining ability entry in data set [1] is on record as “∘”. Also, in data set [2] (setting [3]), the “λem (fluorescence wavelength)” value amounted to 680 and the “λex (excitation wavelength)” value was found to be 530.

Take `CCC(/C=C1\Sc2c(ccc3ccccc23)N1CC)=C\c1sc2c3ccccc3ccc2[n+]1CC.[I-]` [Compound 21]: the Staining ability result in data set [1] is on record as “++”. Further, in data set [2] (setting [3]), the “λem (fluorescence wavelength)” value was 377 and the “λex (excitation wavelength)” value is recorded as 334.

In the case of `COc1ccc(Nc2ccc3c4c(cc(=O)n3C)-c3ccccc3C(=O)c24)cc1` [Compound 116], the Staining ability result in data set [1] is recorded as “∘”. In addition, in data set [2] (setting [4]), the “λem (fluorescence wavelength)” value is reported as 584 and the “λex (excitation wavelength)” value was found to be 537.

Take `CC[n+]1c(C=c2sc(=Cc3ccc4c(c3)C3CCCC3N4c3ccc(C=C(c4ccccc4)c4ccccc4)cc3)c(=O)n2-c2ccccc2)sc2ccccc21.[Br-]` (stereo not shown) [Compound 82]: in data set [1], the Stained site stood at 2 and the Staining ability result is “+++”. Further, in data set [2] (setting [3]), the “λem (fluorescence wavelength)” value stood at 721 and the “λex (excitation wavelength)” value was 591.

In the case of `CCCCN1C(=O)/C(=c2\s/c(=C/c3ccc4c(c3)C3CCCC3N4c3ccc(OC)cc3)c(=O)n2CC(=O)OCC)SC1=S` (stereo not shown) [Compound 68], the Staining ability result in data set [1] is reported as “++”. In addition, in data set [2] (setting [3]), the “λem (fluorescence wavelength)” value is given as 527 and the “λex (excitation wavelength)” value is recorded as 450.

`O=C(O)CN1C(=O)/C(=C\c2ccc3c(c2)[C@@H]2CCC[C@@H]2N3c2ccccc2)SC1=S` [Compound 37]: the Staining ability result in data set [1] is listed as “+++”. In data set [2] (setting [3]), the “λem (fluorescence wavelength)” value is on record as 633 and the “λex (excitation wavelength)” value stood at 531.

Turning to `CCCCN1C(=O)/C(=c2\s/c(=C/c3ccc4c(c3)C3CCCC3N4c3ccccc3)c(=O)n2CC(=O)OCC)SC1=S` (stereo not shown) [Compound 69], the Staining ability entry in data set [1] was “++”. Moreover, in data set [2] (setting [3]), the “λem (fluorescence wavelength)” value is 609 and the “λex (excitation wavelength)” value was 653.

Turning to `CN(C)c1ccc(/C=C/C=C/c2sc3ccccc3[n+]2CC(=O)O)cc1.[Br-]` [Compound 24], in data set [1], the Stained site is reported as 1 and the Staining ability entry is “++”. Further, in data set [2] (setting [3]), the “λem (fluorescence wavelength)” value worked out at 692 and the “λex (excitation wavelength)” value came out at 609.

Turning to `CCCCCN1/C(=C/C=C/c2oc3ccccc3[n+]2CCCCC)Oc2ccccc21.[I-]` [Compound 29], the Staining ability result in data set [1] is on record as “++”. Also, in data set [2] (setting [3]), the “λem (fluorescence wavelength)” value is reported as 509 and the “λex (excitation wavelength)” value is 474.
